Converted amounts (≈) assume the structure as drawn. Where two headings read alike, the source gives them in different places.

Data on one compound can be found in US20240300934A1, “COMPOUNDS FOR MODULATING MYCOBACTERIUM TUBERCULOSIS RESPONSE” (priority 2021, published 2024).

Data set [1] concerns rv2390c′::GFP reporter Mtb strain. It counts as cell-based, Mycobacterium tuberculosis.
Data set [2] has as its system Mtb in bone marrow-derived macrophages (BMDMs). As to the kind of experiment: Mtb growth in primary murine bone marrow-derived macrophages (CFU). In kind it is cell-based, Mycobacterium tuberculosis. As to conditions: 10 μM; added 2 hrs post-infection; eight-day time-course. The procedure: C57BL/6J wild type mice (Jackson Laboratories) were used for extraction of bone marrow-derived macrophages. Cells were harvested and expanded in DMEM containing 10% FBS, 15% L-cell conditioned media, 2 mM L-glutamine, 1 mM sodium pyruvate, and penicillin/streptomycin as needed in a 37° C. incubator in a 5% CO2 atmosphere. […] Macrophages were lysed with water containing 0.01% sodium dodecyl sulfate and a dilution series of the samples plated on 7H10 agar for CFU determination.

The nature of data set [3]: Kinetic aqueous solubility in pH 7.4 PBS. It counts as physicochemical. As to conditions: read-out: Kinetic Aqueous Solubility S.
Protocol: (§1) Assays examining mouse and human liver microsomal stability, kinetic aqueous solubility, mouse and human plasma protein binding and stability, and human cytochrome P450 inhibition characteristics of the compounds were run by BioDuro, Incorporated, using standard protocols as previously described (Wang et al, 2020). hERG inhibition assays were also performed by BioDuro, Incorporated.
The next data set deals with Vero cells. As to the kind of experiment: Vero cell toxicity assay. It counts as cell-based, African green monkey. The note with it: 72 h. The procedure: Vero cells (African green monkey kidney epithelial cells; ATCC CCL-81) were maintained in DMEM+10% FBS. For the cell toxicity assay, Vero cells were plated at 1×10^5 cells/well in a 96-well plate and incubated for 2-3 h to allow cells to settle. The test compound was dissolved in DMSO at a final concentration of 12 mg/ml. The test compound solution was then added to plated cells, resulting in final test concentrations of 50 to 0.78 μg/ml, with each concentration tested at least in duplicate. To evaluate […] cell viability, 20 μl of a 1:20 MTS:PMS reagent (Promega CellTiter 96 AQueous non-radioactive cell proliferation assay kit) was added to each well after 72 h of incubation at 37° C. and the plate then incubated for an additional 3 h. Absorbance at 490 nm was read on a Molecular Devices SpectraMax M5 microplate reader. The CC50 (the minimal amount of compound that inhibited Vero cell growth by 50%) was extrapolated by plotting absorbance at 490 nm versus the […].

The next data set can be described thus: Human plasma stability. It counts as in vitro ADME. As to conditions: after 5 h incubation.
A further data set has as its target human CYP 450 2C19 (Homo sapiens, UniProt P33261). Nature of the data set: Human cytochrome P450 inhibition, 2C19. It counts as in vitro ADME. As to conditions: 10 μM.
A further data set deals with human CYP 450 2D6 (Homo sapiens, UniProt P10635). Nature of the data set: Human cytochrome P450 inhibition, 2D6. In kind it is in vitro ADME. As to conditions: 10 μM.
Sequence of human CYP 450 2D6 (P10635 whole entry): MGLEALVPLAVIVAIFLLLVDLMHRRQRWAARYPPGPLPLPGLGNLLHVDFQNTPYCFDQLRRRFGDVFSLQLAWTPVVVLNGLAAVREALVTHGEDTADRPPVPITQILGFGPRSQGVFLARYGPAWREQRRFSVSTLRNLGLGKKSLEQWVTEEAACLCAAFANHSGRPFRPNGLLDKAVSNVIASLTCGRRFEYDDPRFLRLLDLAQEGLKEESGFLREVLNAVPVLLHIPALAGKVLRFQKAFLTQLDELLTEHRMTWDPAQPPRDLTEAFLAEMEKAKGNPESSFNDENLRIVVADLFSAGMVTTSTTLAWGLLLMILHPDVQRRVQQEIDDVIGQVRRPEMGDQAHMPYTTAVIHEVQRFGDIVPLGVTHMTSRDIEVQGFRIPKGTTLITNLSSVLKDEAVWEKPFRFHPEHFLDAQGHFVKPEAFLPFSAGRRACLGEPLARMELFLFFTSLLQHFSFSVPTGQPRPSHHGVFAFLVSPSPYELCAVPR
Data set [4] has as its system Mtb. As to the kind of experiment: C3HeB/FeJ murine Mtb infection model. It counts as in vivo, C3HeB/FeJ mice. The procedure: C3HeB/FeJ wild type mice (Jackson Laboratories) were infected intranasally with 10^3 CFUs of Mtb (35 μl), under light anesthesia with 2% isoflurane (MacGilvary et al, 2019; Sukumar et al, 2014; Tan et al, 2013). […] The next day the suspension was homogenized by bead beating with 5 mm steel beads in a TOMY microtube mixer (2×20 s), and stored at 4° C. until use. […] Administration began at two or six weeks post-infection as indicated. At time of sacrifice, the left lobe and accessory right lobe of the lung were homogenized in PBS+0.05% Tween 80 and serial dilutions plated on 7H10 agar plates with 100 μg/ml cycloheximide for bacterial load determination. The remaining three right lobes were fixed in 4% PFA in PBS. One lobe was used for histological analysis by standard hematoxylin and eosin (H&E) staining (Tufts Comparative Pathology Services). A Nikon Eclipse E400 with a SPOT insight color digital camera was used to image the histology samples.

For data set [5], the system named is Mtb. As to conditions: PubChem AID 1259343, SID 340463129; cited from earlier work.
A further data set has as its system J774 cells. Nature of the data set: Intracellular drug accumulation assay in J774 cells. As to conditions: 24 h exposure; uninfected J774 cells.
Setting [6] is: 250 mg/kg oral gavage 5 times a week for 2 weeks, started 2 weeks post-infection.
Setting [7] is: 250 mg/kg oral gavage for two or four weeks, started 6 weeks post-infection.

Sequence of human CYP 450 2C19 (P33261 whole entry): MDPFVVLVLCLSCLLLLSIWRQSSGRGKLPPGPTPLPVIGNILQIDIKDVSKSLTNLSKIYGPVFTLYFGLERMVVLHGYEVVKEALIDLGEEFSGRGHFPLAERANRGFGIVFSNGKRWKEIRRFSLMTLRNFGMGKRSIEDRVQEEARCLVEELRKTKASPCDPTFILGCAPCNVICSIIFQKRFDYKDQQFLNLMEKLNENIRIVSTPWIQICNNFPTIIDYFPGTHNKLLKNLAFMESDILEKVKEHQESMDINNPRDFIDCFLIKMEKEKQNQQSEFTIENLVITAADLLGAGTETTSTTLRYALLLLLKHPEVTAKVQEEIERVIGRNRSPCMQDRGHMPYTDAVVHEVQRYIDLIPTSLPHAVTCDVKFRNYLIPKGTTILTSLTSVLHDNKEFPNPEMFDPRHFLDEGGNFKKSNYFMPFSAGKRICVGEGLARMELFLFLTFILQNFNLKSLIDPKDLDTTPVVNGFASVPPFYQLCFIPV
Protocol for Human plasma stability: as §1

Usually kinetic solubility stands for solubility judged after dilution from a stock solution rather than from solid. `CCSc1ncc(CN2CCN(c3nc4ccccc4o3)CC2)cn1` [Compound C6, 2-(4-((2-(ethylthio)pyrimidin-5-yl)methyl)piperazin-1-yl)benzo[d]oxazole]: the “rv2390c′::GFP reporter signal upon Mtb exposure to high [Cl−] (in words)” value in data set [1] (10 μM, 250 mM NaCl) is given as “increased rv2390c′::GFP reporter signal”. Also, the “rv2390c′::GFP Cl− response phenotype” value in data set [1] (compared to C6) is listed as “Y”. Also, in data set [1] (screen hits, high chloride (250 mM NaCl, pH 6.4)), the “rv2390c′::GFP response phenotype” value is reported as “Increases induction in high”. Moreover, the “Mtb bacterial load / growth in primary murine BMDM (in words)” value in data set [2] is given as “significant decrease in bacterial load”. In addition, the solubility (kinetic) in data set [3] (PBS, pH 7.4, aqueous buffer, kinetic from dmso stock, Table 2) amounted to 76.4 µM (≈ 27.2 µg/mL). In addition, the solubility (kinetic) in data set [3] (pH 7.4 phosphate buffered saline (PBS)) stood at 76.4 µM (≈ 27.2 µg/mL). For the same compound, the “CC50 (minimum compound concentration to inhibit cell growth by 50%)” value with Vero cells was greater than 50 µg/mL. Besides, the “stability in human plasma, % remaining” value in “Human plasma stability” came to 94.6%. Moreover, on human CYP 450 2C19, the “% inhibition of CYP 2C19” value is 30.3%. Besides, the “% inhibition of CYP 2D6” value on human CYP 450 2D6 is on record as 10.5%. Further, in the data set on Mtb [4] (setting [6]), the “Mtb growth in lungs (CFU), short-term infection” value is “significantly inhibited Mtb growth in the mice lungs” and the “lung histology, short-term infection” value is on record as “less cellular infiltration”. In addition, in the data set on Mtb [4] (setting [7]), the “lung bacterial load, longer-term infection” value was “significant decrease in bacterial load” and the “lung histopathology, longer-term infection” value is on record as “improved histopathology”. Further, the “growth inhibition call in previous cholesterol media screen” value with Mtb [5] was “positive for growth inhibition”. Also, in the data set with J774 cells, the “intracellular accumulation in J774 cells” value is reported as “dose-dependent accumulation”.
